Active and inactive are the calls of the source. No cut-off for these calls is given here.
What was measured:
[1] = tested on: Calu-6; assay: Antitumor activity against human Calu-6 cells xenografted in CD1 nu/nu mouse assessed as tumor growth inhibition at 60 mg/kg, […] q3d administered via gavage for 7 days measured twice per week during compound dosing; assay type: functional, organism-based; details: time 7.0 day
[2] = tested on: Calu-6; assay: Antitumor activity against human Calu-6 cells xenografted in CD1 nu/nu mouse assessed as tumor growth inhibition at 150 mg/kg, […] q3d administered via gavage for 4 days measured twice per week during compound dosing; assay type: functional, organism-based; details: time 4.0 day

Nc1ccn([C@@H]2O[C@H](CO)[C@@H](O)C2(F)F)c(=O)n1
TGI [1]: Active
TGI [2]: Active
